Experimental data as given in US20250236611A1, “PYRAZOLE COMPOUNDS AND USES THEREOF” (ALCON INC., priority 2021, published 2025).

How the values were obtained:
Assay type in all cases: biochemical
Conditions in all cases: 10 nM JAK enzyme, 800 nM Abl peptide, room temperature 75 min
[1] = target: TYK2 (Homo sapiens, UniProt P29597); assay: JAK assay (KINASE-GLO luminescent kinase assay), TYK2
[2] = target: JAK2 (Homo sapiens, UniProt O60674); assay: JAK assay (KINASE-GLO luminescent kinase assay), JAK2
JAK2, sequence (O60674 whole entry): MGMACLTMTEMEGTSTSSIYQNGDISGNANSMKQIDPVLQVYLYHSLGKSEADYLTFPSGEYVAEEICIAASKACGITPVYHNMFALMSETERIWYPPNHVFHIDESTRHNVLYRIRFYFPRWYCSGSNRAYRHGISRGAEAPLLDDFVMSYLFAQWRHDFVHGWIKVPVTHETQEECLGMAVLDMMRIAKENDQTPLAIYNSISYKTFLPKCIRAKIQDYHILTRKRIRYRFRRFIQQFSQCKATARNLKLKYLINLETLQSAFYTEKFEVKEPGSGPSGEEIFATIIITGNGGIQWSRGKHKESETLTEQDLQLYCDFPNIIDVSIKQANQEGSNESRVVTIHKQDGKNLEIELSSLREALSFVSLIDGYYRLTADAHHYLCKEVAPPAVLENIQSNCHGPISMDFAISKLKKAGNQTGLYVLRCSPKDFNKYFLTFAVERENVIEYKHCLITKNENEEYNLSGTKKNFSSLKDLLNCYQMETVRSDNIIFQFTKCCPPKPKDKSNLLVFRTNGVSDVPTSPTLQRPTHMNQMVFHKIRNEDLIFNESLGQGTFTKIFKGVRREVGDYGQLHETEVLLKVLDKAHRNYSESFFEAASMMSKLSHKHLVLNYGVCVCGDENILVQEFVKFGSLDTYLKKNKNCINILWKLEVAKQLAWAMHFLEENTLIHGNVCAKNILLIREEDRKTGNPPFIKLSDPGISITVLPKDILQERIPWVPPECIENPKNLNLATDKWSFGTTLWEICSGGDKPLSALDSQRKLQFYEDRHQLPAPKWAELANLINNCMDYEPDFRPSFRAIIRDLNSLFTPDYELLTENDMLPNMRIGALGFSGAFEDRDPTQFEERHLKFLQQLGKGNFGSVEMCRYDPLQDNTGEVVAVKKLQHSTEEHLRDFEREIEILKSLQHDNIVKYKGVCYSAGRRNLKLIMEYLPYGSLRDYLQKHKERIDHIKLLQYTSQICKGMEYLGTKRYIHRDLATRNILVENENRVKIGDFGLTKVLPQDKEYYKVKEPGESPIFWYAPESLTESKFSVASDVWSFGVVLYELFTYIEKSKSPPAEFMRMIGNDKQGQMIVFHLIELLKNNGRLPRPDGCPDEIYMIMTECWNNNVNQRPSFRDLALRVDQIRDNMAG
How it was run: (§1)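 The 2× mix gave 10 nM kinase, 800 nM Abl peptide and 2 µM DTT, and ATP was added as a 4× stock (2 µM), in HEPES pH 7.5 buffer. Compounds ran as an 11-point series, 100 µM–10 pM final in 2.5% DMSO, for 75 min at RT. Remaining ATP was read by luminescence against DMSO control, and 4-parameter IC50s were converted to Ki by Cheng-Prusoff.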

[3] = target: JAK1 (Homo sapiens, UniProt P23458); assay: JAK assay (KINASE-GLO luminescent kinase assay), JAK1
JAK1, sequence (P23458 whole entry): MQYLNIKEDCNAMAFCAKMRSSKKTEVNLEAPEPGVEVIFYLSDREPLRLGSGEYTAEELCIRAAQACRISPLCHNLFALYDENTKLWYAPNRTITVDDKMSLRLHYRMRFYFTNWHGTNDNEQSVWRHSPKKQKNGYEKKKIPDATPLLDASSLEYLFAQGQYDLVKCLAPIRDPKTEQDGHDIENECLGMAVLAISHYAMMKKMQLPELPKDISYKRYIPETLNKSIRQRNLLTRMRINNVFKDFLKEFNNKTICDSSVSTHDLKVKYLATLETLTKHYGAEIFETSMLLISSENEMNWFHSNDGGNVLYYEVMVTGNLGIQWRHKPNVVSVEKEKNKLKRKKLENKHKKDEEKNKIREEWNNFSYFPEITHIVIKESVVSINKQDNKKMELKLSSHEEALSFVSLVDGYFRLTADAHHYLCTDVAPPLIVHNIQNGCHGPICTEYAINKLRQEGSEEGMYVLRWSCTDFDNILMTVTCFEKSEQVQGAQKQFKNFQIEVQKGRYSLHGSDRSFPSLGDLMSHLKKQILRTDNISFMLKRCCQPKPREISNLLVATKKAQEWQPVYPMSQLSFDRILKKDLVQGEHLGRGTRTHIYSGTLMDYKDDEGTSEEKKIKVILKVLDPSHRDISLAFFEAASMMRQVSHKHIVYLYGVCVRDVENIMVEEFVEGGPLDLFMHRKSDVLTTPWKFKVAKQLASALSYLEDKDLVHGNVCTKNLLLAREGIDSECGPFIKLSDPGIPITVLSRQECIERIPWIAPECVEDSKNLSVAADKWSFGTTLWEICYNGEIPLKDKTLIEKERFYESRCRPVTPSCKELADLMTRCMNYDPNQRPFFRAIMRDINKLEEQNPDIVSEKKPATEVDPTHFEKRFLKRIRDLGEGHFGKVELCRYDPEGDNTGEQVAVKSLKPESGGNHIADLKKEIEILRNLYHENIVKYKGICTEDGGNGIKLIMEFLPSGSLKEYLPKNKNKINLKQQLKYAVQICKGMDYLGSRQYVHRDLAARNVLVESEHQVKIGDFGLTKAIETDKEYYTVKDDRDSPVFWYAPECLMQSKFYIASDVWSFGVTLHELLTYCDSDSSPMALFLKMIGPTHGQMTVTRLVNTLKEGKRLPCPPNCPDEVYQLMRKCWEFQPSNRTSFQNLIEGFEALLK
How it was run: as §1

[4] = target: T1, JAK3 (Homo sapiens, UniProt P52333); assay: JAK assay (KINASE-GLO luminescent kinase assay), JAK3
T1 sequence (P52333 1-1124): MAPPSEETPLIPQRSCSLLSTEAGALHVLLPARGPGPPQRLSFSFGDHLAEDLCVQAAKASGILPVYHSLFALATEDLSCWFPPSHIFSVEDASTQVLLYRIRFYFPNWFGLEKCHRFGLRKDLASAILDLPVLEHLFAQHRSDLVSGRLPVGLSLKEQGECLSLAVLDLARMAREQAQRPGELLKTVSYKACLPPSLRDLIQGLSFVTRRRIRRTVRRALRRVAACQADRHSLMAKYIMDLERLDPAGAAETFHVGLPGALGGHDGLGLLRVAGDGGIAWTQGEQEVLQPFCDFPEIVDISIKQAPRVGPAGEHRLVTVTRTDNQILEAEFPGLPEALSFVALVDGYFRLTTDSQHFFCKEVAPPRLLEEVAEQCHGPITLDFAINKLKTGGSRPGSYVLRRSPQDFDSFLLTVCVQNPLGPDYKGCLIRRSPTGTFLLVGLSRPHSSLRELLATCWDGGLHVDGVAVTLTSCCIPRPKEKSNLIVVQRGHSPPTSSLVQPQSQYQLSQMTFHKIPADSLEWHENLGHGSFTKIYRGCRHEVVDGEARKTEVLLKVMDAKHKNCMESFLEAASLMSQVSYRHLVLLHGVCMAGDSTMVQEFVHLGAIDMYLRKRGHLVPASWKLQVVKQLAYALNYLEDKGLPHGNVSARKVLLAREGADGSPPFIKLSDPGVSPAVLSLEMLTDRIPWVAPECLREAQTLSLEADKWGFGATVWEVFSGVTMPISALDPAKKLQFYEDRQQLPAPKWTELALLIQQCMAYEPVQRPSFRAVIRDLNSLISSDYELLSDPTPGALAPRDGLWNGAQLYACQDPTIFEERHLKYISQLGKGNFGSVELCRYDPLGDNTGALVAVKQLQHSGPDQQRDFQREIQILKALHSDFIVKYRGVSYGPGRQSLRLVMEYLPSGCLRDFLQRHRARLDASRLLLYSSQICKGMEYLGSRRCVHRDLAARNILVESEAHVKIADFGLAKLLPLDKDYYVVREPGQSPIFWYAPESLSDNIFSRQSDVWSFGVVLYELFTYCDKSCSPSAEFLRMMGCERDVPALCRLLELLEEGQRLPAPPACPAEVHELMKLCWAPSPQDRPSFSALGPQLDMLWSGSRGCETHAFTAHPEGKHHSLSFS
How it was run: as §1

TYK2, sequence (P29597 whole entry): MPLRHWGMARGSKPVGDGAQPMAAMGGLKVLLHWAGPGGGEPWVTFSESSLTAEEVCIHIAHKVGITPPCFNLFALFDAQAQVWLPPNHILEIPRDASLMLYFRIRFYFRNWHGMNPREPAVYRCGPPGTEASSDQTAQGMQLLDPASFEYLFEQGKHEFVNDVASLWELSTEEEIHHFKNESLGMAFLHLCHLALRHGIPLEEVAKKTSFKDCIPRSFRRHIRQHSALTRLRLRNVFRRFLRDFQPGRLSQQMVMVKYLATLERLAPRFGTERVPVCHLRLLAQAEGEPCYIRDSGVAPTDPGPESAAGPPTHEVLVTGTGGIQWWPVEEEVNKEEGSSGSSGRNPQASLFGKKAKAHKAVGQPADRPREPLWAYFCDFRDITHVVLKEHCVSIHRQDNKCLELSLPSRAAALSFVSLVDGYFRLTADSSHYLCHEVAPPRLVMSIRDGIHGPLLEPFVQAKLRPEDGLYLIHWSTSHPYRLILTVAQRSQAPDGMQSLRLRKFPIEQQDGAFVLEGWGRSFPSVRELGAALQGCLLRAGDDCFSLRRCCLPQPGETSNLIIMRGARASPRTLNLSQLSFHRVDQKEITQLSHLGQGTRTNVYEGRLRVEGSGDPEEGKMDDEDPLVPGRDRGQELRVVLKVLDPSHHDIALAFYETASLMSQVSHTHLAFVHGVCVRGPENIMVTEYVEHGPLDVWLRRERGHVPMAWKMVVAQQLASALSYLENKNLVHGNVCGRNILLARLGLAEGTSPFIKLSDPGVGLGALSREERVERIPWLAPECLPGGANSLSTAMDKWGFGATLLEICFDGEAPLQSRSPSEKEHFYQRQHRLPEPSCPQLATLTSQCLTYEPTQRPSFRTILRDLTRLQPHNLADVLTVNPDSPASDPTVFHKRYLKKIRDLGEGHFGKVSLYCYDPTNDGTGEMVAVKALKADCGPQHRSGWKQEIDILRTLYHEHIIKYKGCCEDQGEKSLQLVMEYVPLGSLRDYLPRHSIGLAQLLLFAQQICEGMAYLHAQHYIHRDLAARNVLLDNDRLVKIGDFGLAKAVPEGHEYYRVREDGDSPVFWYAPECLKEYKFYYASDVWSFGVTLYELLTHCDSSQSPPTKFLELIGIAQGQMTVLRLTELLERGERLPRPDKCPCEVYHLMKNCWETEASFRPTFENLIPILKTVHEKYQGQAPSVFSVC

Row | Compound | IC50 [1] [nM] | IC50 [2] [nM] | IC50 [3] [nM] | IC50 [4] [nM]
1 | Cc1cnc(Nc2ccc(C(=O)NCCN(C)C)cc2)nc1-c1cnn(CC2(CF)CC2)c1 [CN(C)CCNC(═O)C1═CC═C(NC2═NC] | < 10 | < 10 | < 100 | < 100
2 | Cc1cnc(Nc2ccnc(OCCN(C)C)c2)nc1-c1cnn(CC2(CC#N)CC2)c1 [CN(C)CCOC1═CC(═CC═N1)NC2═NC(═C] | < 100 | < 10 | < 100 | < 100
3 | CNC1(Cn2cc(-c3nc(Nc4cc(C)ns4)ncc3Cl)cn2)CC1 [CNC1(CC1)C[N]2C═C(C═N2)C3═C] | < 100 | < 10 | < 100 | < 10
4 | COc1cnc(Nc2ccc(N3CCN(C)CC3)cc2)nc1-c1cnn(CC2(Cl)CC2)c1 [COC1═C(N═C(NC2═CC═C] | < 100 | < 10 | < 100 | < 10
5 | COC(=O)c1cc(Nc2ncc(C)c(-c3cnn(CCC#N)c3)n2)ccc1N1CCOCC1 [COC(═O)C1═C(C═CC(═C1)NC2═NC(═C] | < 10 | < 10 | < 10 | < 10
6 | COC(=O)c1cccc(Nc2ncc(Cl)c(-c3cnn(CCC#N)c3)n2)c1 [COC(═O)C1═CC═CC(═C1)NC2═NC] | < 100 | < 10 | < 100 | < 10
7 | COCc1cc(Nc2ncc(C)c(-c3cnn(CC4(CF)CC4)c3)n2)sn1 [COCC1═NSC(═C1)NC2═NC(═C] | < 1000 | < 100 | < 1000 | < 1000
8 | Cc1cnc(Nc2ccc(CNC(=O)[C@H](C)N)cc2)nc1-c1cnn(CC2(CF)CC2)c1 [C[C@H](N)C(═O)NCC1═CC═C(NC2═NC] | < 100 | < 10 | < 100 | < 100
9 | Cc1cnc(Nc2cn(C)nn2)nc1-c1cnn(CC2(CF)CC2)c1 [C[N]1C═C(NC2═NC(═C(C)C═N2)C3═C[N]] | < 1000 | < 100 | < 1000 | < 1000
10 | Cn1cc(Nc2ncc(Cl)c(-c3cnn(CCC4CC4)c3)n2)cn1 [C[N]1C═C(NC2═NC(═C] | < 100 | < 10 | < 100 | < 10
11 | Clc1cnc(Nc2cccc(CN3CCC3)c2)nc1 [ClC1═C(N═C(NC2═CC(═CC═C2)CN3CCC3)N═C1)] | < 10 | < 10 | < 100 | < 10
12 | Clc1cnc(NC23CC(C2)C3)nc1-c1cnn(Cc2cccs2)c1 [ClC1═C(N═C(NC23CC(C2)C3)N═C1)C4═C[N]] | > 50000 | > 50000 | > 50000 | < 100000
13 | N#CC1(Cn2cc(-c3nc(Nc4cnc5ccnn5c4)ncc3Cl)cn2)CCC1 [ClC1═C(N═C] | < 1000 | < 100 | < 100000 | < 1000
14 | N#CCCn1cc(-c2nc(Nc3ccc(N4CCOCC4)c(F)c3)ncc2Cl)cn1 [FC1═CC(═CC═C1N2CCOCC2)NC3═NC(═C] | < 10 | < 10 | < 10 | < 10
15 | N#CCCn1cc(-c2nc(Nc3cc(C(F)(F)F)no3)ncc2Cl)cn1 [FC(F)(F)C1═NOC(═C1)NC2═NC(═C] | > 50000 | < 1000 | > 50000 | > 50000

More lines, now with the values ahead:

Row | IC50 [1] [nM] | IC50 [2] [nM] | IC50 [3] [nM] | IC50 [4] [nM] | Compound
16 | < 10 | < 10 | < 100 | < 10 | Cc1cnc(Nc2cc(COC(=O)CCN(C)C)ns2)nc1-c1cnn(CC2(CF)CC2)c1 [CN(C)CCC(═O)OCC1═NSC(═C1)NC2═NC]
17 | < 10 | < 10 | < 10 | < 10 | CNC(=O)c1ccc(Nc2ncc(C)c(-c3cnn(CC4(CF)CC4)c3)n2)cc1 [CNC(═O)C1═CC═C(NC2═NC(═C]
18 | < 1000 | < 10 | < 1000 | < 100 | CNC(=O)c1cccc(Nc2ncc(Cl)c(-c3cnn(CC4(NC)CC4)c3)n2)c1 [CNC(═O)C1═CC═CC(═C1)NC2═NC]
19 | < 100 | < 10 | < 100 | < 100 | CNCc1cc(Nc2ncc(C)c(-c3cnn(CC4(CF)CC4)c3)n2)sn1 [CNCC1═NSC(═C1)NC2═NC(═C]
20 | < 1000 | < 100 | 1880 | < 1000 | COC1(c2ccc(Nc3ncc(C)c(-c4cnn(CC5(CF)CC5)c4)n3)cc2)COC1 [COC1(COC1)C2═CC═C(NC3═NC(═C]
21 | < 100 | < 10 | < 100 | < 100 | COc1cnc(Nc2cc(COC(=O)c3ccccc3)ns2)nc1-c1cnn(CC2(CF)CC2)c1 [COC1═C(N═C(NC2═CC(═NS2)COC]
22 | < 100 | < 10 | < 1000 | < 100 | COc1cnc(Nc2ccc(C3(O)COC3)cc2)nc1-c1cnn(CC2(CF)CC2)c1 [COC1═C(N═C(NC2═CC═C(C═C2)C3]
23 | < 100 | < 10 | < 1000 | < 100 | COc1ccc(Nc2ncc(C)c(-c3cnn(CC4(CF)CC4)c3)n2)cn1 [COC1═CC═C(NC2═NC(═C]
24 | < 10 | < 10 | < 100 | < 100 | COc1cc(Nc2ncc(C)c(-c3cnn(CC4(CF)CC4)c3)n2)sn1 [COC1═NSC(═C1)NC2═NC(═C]
25 | < 100 | < 10 | < 100 | < 10 | COC(=O)c1cc(Nc2ncc(C)c(-c3cnn(CCC#N)c3)n2)ccc1N1CCOCC1 [COC(═O)C1═CC(═CC═C1)NC2═NC(═C]
26 | < 100 | < 10 | < 1000 | < 100 | COC(=O)c1ccc(Nc2ncc(Cl)c(-c3cnn(CC4(C#N)CC4)c3)n2)cn1 [COC(═O)C1═NC═C(NC2═NC(═C]
27 | < 100 | < 10 | < 100 | < 100 | COCCOc1ccc(Nc2ncc(C)c(-c3cnn(CC4(CF)CC4)c3)n2)cc1 [COCCOC1═CC═C(NC2═NC(═C]
28 | < 1000 | < 1000 | < 1000 | < 1000 | COCCOCc1cc(Nc2ncc(C)c(-c3cnn(CC4(CF)CC4)c3)n2)sn1 [COCCOCC1═NSC(═C1)NC2═NC(═C]
29 | < 100 | < 10 | < 100 | < 100 | Cc1cnc(Nc2ccc(CNC(=O)[C@H](C)NC(=O)OC(C)(C)C)cc2)nc1-c1cnn(CC2(CF)CC2)c1 [C[C@H](NC(═O)OC(C)(C)C)C]
30 | < 1000 | < 10 | < 1000 | < 1000 | Cn1ccc(Nc2ncc(Cl)c(-c3cnn(CCC#N)c3)n2)n1 [C[N]1C═CC(═N1)NC2═NC(═C]
31 | > 50000 | < 100000 | > 50000 | > 50000 | CS(=O)(=O)N(c1ncc(Cl)c(-c2cnn(CCC#N)c2)n1)S(C)(=O)=O [C[S](═O)(═O)N(C1═NC(═C]
32 | < 100000 | < 100000 | < 100000 | < 100000 | CS(=O)(=O)N(c1ncc(Cl)c(-c2cnn(CCC#N)c2)n1)S(C)(=O)=O [C[S](═O)(═O)NC1═NC(═C]
33 | < 100 | < 10 | < 100 | < 100 | N#CC1(Cn2cc(-c3nc(Nc4ccns4)ncc3Cl)cn2)CCC1 [ClC1═C(N═C(NC2═CC═NS2)N═C1)C3═C[N]]
34 | < 100000 | < 100000 | < 100000 | < 100000 | N#CCCn1cc(-c2nc(Nc3ccsc3)ncc2Cl)cn1 [ClC1═C(N═C(NC2═CSC═C2)N═C1)C3═C[N]]
35 | > 50000 | < 100000 | > 50000 | > 50000 | N#CCCn1cc(-c2nc(NC3CCNCC3(F)F)ncc2Cl)cn1 (stereo not shown) [FC1(F)CNCCC1NC2═NC(═C]
36 | < 10 | < 10 | < 100 | < 10 | N#CCCn1cc(-c2nc(Nc3cccc(CN4CC(F)C4)c3)ncc2Cl)cn1 [FC1CN(C1)CC2═CC═CC(═C2)NC3═NC(═C]
37 | < 100 | < 10 | < 1000 | < 100 | N#CCCn1cc(-c2nc(Nc3ccc(N4CCOCC4)cc3F)ncc2Cl)cn1 [FC1═CC(═CC═C1NC2═NC(═C]
